One data set concerns the target T1, OAT1 (Homo sapiens, UniProt Q4U2R8).
T1 sequence (Q4U2R8 1-563): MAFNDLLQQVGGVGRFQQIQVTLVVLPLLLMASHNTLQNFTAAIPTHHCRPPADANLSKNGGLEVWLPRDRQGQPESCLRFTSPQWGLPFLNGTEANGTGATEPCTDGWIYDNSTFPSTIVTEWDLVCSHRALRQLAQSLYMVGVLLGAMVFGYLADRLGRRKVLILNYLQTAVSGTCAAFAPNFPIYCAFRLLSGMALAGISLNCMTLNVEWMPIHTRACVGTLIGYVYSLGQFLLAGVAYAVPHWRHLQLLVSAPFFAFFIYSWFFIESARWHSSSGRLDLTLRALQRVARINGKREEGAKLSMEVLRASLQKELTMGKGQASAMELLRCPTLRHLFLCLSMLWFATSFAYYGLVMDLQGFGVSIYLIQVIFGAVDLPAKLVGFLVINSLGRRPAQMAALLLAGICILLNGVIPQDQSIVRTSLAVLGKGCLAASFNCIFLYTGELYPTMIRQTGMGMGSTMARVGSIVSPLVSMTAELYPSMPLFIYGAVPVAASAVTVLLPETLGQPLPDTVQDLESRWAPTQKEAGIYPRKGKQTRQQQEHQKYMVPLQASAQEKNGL
Nature of the data set: Inhibition of OAT1-mediated [3H]PAH uptake in HEK293-OAT1 cells. As for the experimental part: (§1) HEK293 cells overexpressing the OCT1, OCT2, OAT1, OAT3, OATP1B1, and OATP1B3 transporters (HEK293-OCT1, -OCT2, -OAT1, -OAT3, -OATP1B1, and -OATP1B3, respectively) and HEK293-mock cells (Corning Life Sciences; Woburn, MA, USA) were used and characterized as previously described.
(§2) HEK293 cells overexpressing drug transporters and HEK293-mock cells were seeded in poly-D-lysine-coated 96-well plates at a density of 10^5 cells/well and were cultured in DMEM supplemented with 10% FBS, 5 mM non-essential amino acids, and 2 mM sodium butyrate in a humidified atmosphere with 8% CO2 at 37 °C.
(§3) Then the uptake of probe substrates into HEK293-mock cells and HEK293-OCT1, -OCT2, -OAT1, -OAT3, -OATP1B1, and -OATP1B3 cells in the presence and absence of typical inhibitor or each ginsenoside with previously described concentration range was measured for 5 min. Immediately after placing the plates on ice, the cells were washed three times with 100 μL of ice-cold HBSS, followed by lysing with 50 μL of 10% SDS solution and mixing with 150 μL of Optiphase cocktail solution (Perkin Elmer Inc., Boston, MA, USA). The radioactivity of the probe substrates in the cells was determined using a liquid scintillation counter.
(§4) In the inhibition studies, the uptake rate of substrate by HEK293 cells overexpressing the respective transporters was used as the control (100%) and the uptake rate of substrates in the presence of typical inhibitors or ginsenosides expressed as a percentage of the control. The inhibition data were fitted to an inhibitory effect model using Sigma plot (version 10.0; Systat Software Inc., San Jose, CA, USA). IC50 value indicated the half-maximal inhibitory concentration of the inhibitor.

In another data set the target is T2, OAT3 (Homo sapiens, UniProt Q8TCC7).
T2 sequence (Q8TCC7 1-542): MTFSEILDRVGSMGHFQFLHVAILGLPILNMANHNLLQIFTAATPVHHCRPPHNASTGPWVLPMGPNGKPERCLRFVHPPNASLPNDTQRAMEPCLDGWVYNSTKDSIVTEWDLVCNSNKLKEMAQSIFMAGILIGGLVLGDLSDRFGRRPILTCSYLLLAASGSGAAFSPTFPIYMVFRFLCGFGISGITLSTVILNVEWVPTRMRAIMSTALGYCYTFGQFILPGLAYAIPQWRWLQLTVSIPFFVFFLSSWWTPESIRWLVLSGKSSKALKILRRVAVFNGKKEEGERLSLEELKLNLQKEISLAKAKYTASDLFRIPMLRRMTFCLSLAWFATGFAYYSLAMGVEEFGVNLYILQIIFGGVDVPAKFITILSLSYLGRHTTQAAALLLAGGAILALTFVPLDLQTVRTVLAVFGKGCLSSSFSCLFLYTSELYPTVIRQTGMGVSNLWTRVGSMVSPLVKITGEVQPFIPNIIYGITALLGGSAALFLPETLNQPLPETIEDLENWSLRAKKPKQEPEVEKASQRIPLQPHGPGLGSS
Description: Inhibition of OAT3-mediated [3H]ES uptake in HEK293-OAT3 cells. As to the method: as §1, §2
as §3, with “To examine the effects of ginsenosides and typical inhibitors on transporter activity, aliquots (100 μL) of HBSS containing the probe substrate and ginsenosides or typical inhibitors were added to the cells after aspirating pre-incubated HBSS. The concentrations and probe substrates were as follows: 0.1 μM [^3H]MPP^+ for OCT1 and OCT2, 0.1 μM [^3H]PAH for OAT1, 0.1 μM [^3H]ES for OAT3 and OATP1B1, and 0.1 μM [^3H]EG for OATP1B3. […] Then” for “Then”
as §4

Another data set concerns the target T3, OATP1B1 (Homo sapiens, UniProt Q9Y6L6).
T3 sequence (Q9Y6L6 1-691): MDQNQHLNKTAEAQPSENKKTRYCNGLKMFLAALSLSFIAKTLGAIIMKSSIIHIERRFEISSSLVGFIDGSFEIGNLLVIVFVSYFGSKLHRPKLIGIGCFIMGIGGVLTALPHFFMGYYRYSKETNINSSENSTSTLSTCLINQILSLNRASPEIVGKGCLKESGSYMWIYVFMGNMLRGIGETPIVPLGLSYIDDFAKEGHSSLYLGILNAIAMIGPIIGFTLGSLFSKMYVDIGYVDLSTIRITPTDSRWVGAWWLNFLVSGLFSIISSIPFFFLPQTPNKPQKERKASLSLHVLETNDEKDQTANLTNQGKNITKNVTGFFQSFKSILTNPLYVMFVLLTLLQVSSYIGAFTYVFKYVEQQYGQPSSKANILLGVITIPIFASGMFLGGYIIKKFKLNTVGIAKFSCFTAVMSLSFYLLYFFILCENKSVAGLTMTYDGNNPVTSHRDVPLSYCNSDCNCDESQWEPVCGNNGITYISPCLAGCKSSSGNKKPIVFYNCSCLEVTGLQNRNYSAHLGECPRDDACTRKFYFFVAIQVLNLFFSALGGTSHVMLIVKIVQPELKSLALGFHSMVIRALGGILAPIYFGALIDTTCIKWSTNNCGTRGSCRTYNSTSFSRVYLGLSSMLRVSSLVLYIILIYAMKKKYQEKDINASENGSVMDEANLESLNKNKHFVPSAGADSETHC
Description: Inhibition of OATP1B1-mediated [3H]estrone-3-sulfate uptake in HEK293-OATP1B1 cells. As to the method:
as §1, §2
as §3, with “To examine the effects of ginsenosides and typical inhibitors on transporter activity, aliquots (100 μL) of HBSS containing the probe substrate and ginsenosides or typical inhibitors were added to the cells after aspirating pre-incubated HBSS. The concentrations and probe substrates were as follows: 0.1 μM [^3H]MPP^+ for OCT1 and OCT2, 0.1 μM [^3H]PAH for OAT1, 0.1 μM [^3H]ES for OAT3 and OATP1B1, and 0.1 μM [^3H]EG for OATP1B3. […] Then” for “Then”
as §4

Where [1] appears, read: read-out: IC50 OAT1, HEK293-OAT1, 0.1 μM [3H]PAH uptake, 5 min.
[2] abbreviates: read-out: IC50 OAT3, HEK293-OAT3, 0.1 μM [3H]ES uptake, 5 min.
Setting [3] is: read-out: IC50 OATP1B1, HEK293-OATP1B1, 0.1 μM [3H]ES uptake, 5 min.
The mark [4] stands for this setting: HEK293-OATP1B1, 0.1 μM [3H]ES uptake, 5 min.

Where two headings read alike, the source gives them in different places. Where only a bound is given, the exact number is not on record here.

In the case of `CC(C)=CCC[C@](C)(O[C@@H]1O[C@H](CO[C@@H]2OC[C@H](O)[C@H](O)[C@H]2O)[C@@H](O)[C@H](O)[C@H]1O)[C@H]1CC[C@]2(C)[C@@H]1[C@H](O)C[C@@H]1[C@@]3(C)CC[C@H](O[C@@H]4O[C@H](CO)[C@@H](O)[C@H](O)[C@H]4O[C@@H]4O[C@H](CO)[C@@H](O)[C@H](O)[C@H]4O)C(C)(C)[C@@H]3CC[C@]12C` [Rb2, ginsenoside Rb2], the IC50 (commonly the concentration needed to halve the response being measured) against OAT1 is more than 100 µM; on OAT3, more than 100 µM; at OATP1B1 it was 47.6 µM.
With `CC(C)=CCC[C@](C)(O[C@@H]1O[C@H](CO[C@@H]2O[C@@H](CO)[C@H](O)[C@H]2O)[C@@H](O)[C@H](O)[C@H]1O)[C@H]1CC[C@]2(C)[C@@H]1[C@H](O)C[C@@H]1[C@@]3(C)CC[C@H](O[C@@H]4O[C@H](CO)[C@@H](O)[C@H](O)[C@H]4O[C@@H]4O[C@H](CO)[C@@H](O)[C@H](O)[C@H]4O)C(C)(C)[C@@H]3CC[C@]12C` [Rc, ginsenoside Rc], the IC50 on OAT1 was more than 100 µM; on OAT3, more than 100 µM; at OATP1B1 it was 18.3 µM.
In the case of `CC(C)=CCC[C@](C)(O)[C@H]1CC[C@]2(C)[C@@H]1[C@H](O)C[C@@H]1[C@@]3(C)CC[C@H](O[C@@H]4O[C@H](CO)[C@@H](O)[C@H](O)[C@H]4O[C@@H]4O[C@H](CO)[C@@H](O)[C@H](O)[C@H]4O)C(C)(C)[C@@H]3CC[C@]12C` [Rg3, ginsenoside Rg3], the IC50 is more than 100 µM at OAT1 (setting [1]), more than 100 µM at OAT3 (setting [2]) and 7.99 µM on OATP1B1 (setting [3]).
Turning to `CC(C)=CCC[C@](C)(O[C@@H]1O[C@H](CO)[C@@H](O)[C@H](O)[C@H]1O)[C@H]1CC[C@]2(C)[C@@H]1[C@H](O)C[C@@H]1[C@@]3(C)CC[C@H](O)C(C)(C)[C@@H]3CC[C@]12C` [Compound K, compound K], the IC50 on OAT1 (setting [1]) is more than 100 µM; at OAT3 (setting [2]), more than 100 µM; at OATP1B1 (setting [3]), 22.5 µM.
Regarding `CC(C)=CCCC(C)(O)[C@H]1CC[C@]2(C)[C@@H]1[C@H](O)C[C@@H]1[C@@]3(C)CC[C@H](O)C(C)(C)[C@@H]3CC[C@]12C` (stereo in doubt) [PPD, protopanaxadiol], the IC50 on OAT1 (setting [1]), on OAT3 (setting [2]) and on OATP1B1 (setting [3]) was more than 100 µM throughout.
Take `CC(C)=CCC[C@](C)(O[C@@H]1O[C@H](CO)[C@@H](O)[C@H](O)[C@H]1O)[C@H]1CC[C@]2(C)[C@@H]1[C@H](O)C[C@@H]1[C@@]3(C)CC[C@H](O[C@@H]4O[C@H](CO)[C@@H](O)[C@H](O)[C@H]4O[C@@H]4O[C@H](CO)[C@@H](O)[C@H](O)[C@H]4O)C(C)(C)[C@@H]3CC[C@]12C` [Rd, ginsenoside Rd]: the IC50 against OAT1 was more than 100 µM; against OAT3, more than 100 µM; against OATP1B1, 15.9 µM.
Take `CC(C)=CCC[C@](C)(O)[C@H]1CC[C@]2(C)[C@@H]1[C@H](O)C[C@@H]1[C@@]3(C)CC[C@H](O[C@@H]4O[C@H](CO)[C@@H](O)[C@H](O)[C@H]4O)C(C)(C)[C@@H]3CC[C@]12C` [Rh2, ginsenoside Rh2]: the values for the half-maximal inhibitory concentration (IC50) against OAT1, against OAT3 and against OATP1B1 were more than 100 µM, more than 100 µM and 22.3 µM, respectively.
Take `CC(C)=CCC[C@](C)(O[C@@H]1O[C@H](CO)[C@@H](O)[C@H](O)[C@H]1O)[C@H]1CC[C@]2(C)[C@@H]1[C@H](O)C[C@@H]1[C@@]3(C)CC[C@H](O)C(C)(C)[C@@H]3[C@@H](O[C@@H]3O[C@H](CO)[C@@H](O)[C@H](O)[C@H]3O)C[C@]12C` [Rg1, ginsenoside Rg1]: the IC50 against OAT1, on OAT3 and against OATP1B1 was more than 100 µM each time. For the same molecule, the “IC50 OATP1B1” value at OATP1B1 (setting [4]) is listed as “did not inhibit”.
Consider `CC(C)=CCC[C@](C)(O)[C@H]1CC[C@]2(C)[C@@H]1[C@H](O)C[C@@H]1[C@@]3(C)CC[C@H](O)C(C)(C)[C@@H]3[C@@H](O[C@@H]3O[C@H](CO)[C@@H](O)[C@H](O)[C@H]3O)C[C@]12C` [Rh1, ginsenoside Rh1], for which the IC50 on OAT1, at OAT3 and on OATP1B1 was more than 100 µM each time. Besides, at OATP1B1 (setting [4]), the “IC50 OATP1B1” value is “did not inhibit”.
